Our source for the Kd values is paper PMC4772377, “Structural insights into Cydia pomonella pheromone binding protein 2 mediated prediction of potentially active semiochemicals” (Scientific Reports, 2016).

For the assay, the target named is CpomPBP2 (Cydia pomonella, UniProt I3ZNT9). Nature of the assay: Competitive fluorescence binding assay with 1-NPN probe. The conditions noted are these: 2 μM CpomPBP2 and 2 μM 1-NPN, 50 mM Tris-HCl pH 6.8 (text: pH7.0); calculated from IC50; read-out: KD (dissociation constant of competitor).
Chain of CpomPBP2 (I3ZNT9 26-169 limits assumed): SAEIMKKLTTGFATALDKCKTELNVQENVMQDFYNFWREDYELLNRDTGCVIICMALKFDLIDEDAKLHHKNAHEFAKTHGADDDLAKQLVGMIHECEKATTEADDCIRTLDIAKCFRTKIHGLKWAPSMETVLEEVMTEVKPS

Regarding `CCCCCCC/C=C/C=C/C=O` [E,E-2,4-Dodecadienal], the Kd is 6.99 ± 0.72 µM.

`CCCCCCOC(=O)CCCCC` [Hexyl Hexanoate]: the equilibrium dissociation constant (Kd) was 16.2 ± 0.84 µM.

For `CCC=CCCOC(=O)C(C)CC` (stereo not drawn) [Z-3-Hexenyl-2-Methylbutanoate], the Kd is 97 ± 2.26 µM.
